Publication PMC10999085, “Synthesis, anticancer evaluation, molecular docking and ADME study of novel pyrido[4ʹ,3ʹ:3,4]pyrazolo[1,5-a]pyrimidines as potential tropomyosin receptor kinase A (TrKA) inhibitors” (BMC Chemistry, 2024)
In brackets after ≈: the same amount, converted by molar mass.

Assays:
HCT-116 cell line = experiment: MTT assay, HCT-116 cell line; format: cell-based, human; conditions: for Cytotoxicity at 5 µg/l: HCT116, 5 µg/l; for Cytotoxicity at 5 µg/l / Cytotoxicity at 10 µg/l / Cytotoxicity at 20 µg/l: MTT, 24 hr treatment, in % (unit assumed); for Cytotoxicity at 10 µg/l: HCT116, 10 µg/l; for Cytotoxicity at 20 µg/l: HCT116, 20 µg/l
Procedure: (§1) Determination of the inhibitory effects of compounds on cell growth was performed through the MTT assay. This colorimetric assay is based on the conversion of the yellow tetrazolium bromide (MTT) to a purple formazan derivative by mitochondrial succinate dehydrogenase in viable cells. The protocol was discussed in details in Additional file 1.
(§2) Compounds 1, 4a,b, 7a–c, 7k, l, 9a–c, 14a, 15b, 16a–c were selected to be investigated against three human cancer cell lines MCF7, HepG2 and HCT116 cell lines using MTT assay using doxorubicin as the standard drug. Each point is the mean ± SD (standard deviation) of three independent experiments performed in triplicate, using the prism software program (integrated Graphpad software, version 3).
(§3) Cell lines were used to measure the cell growth effects of the compounds using the MTT assay. This colorimetric assay is depend on the conversion of the yellow tetrazolium bromide (MTT) to a purple formazan derivative by mitochondrial succinate dehydrogenase in living cells. Cell lines were cultured in RPMI-1640 medium supplemented with 10% fetal bovine serum. The antibiotics added were 100 units/ml penicillin and 100 µg/ml streptomycin at 37 °C in a 5% CO2 incubator. Cell lines were seeded in a 96-well plates at a density of 1.0x10^4 cells/well and cultured at 37 °C for 48 h under 5% CO2. After incubation, the cells were treated with different concentrations of compounds and incubated for 24 hr. After 24 hr of drug treatment, 20 µl of MTT solution at 5 mg/ml was added to each well and incubated for 4 hr. 100 µl of dimethyl sulfoxide (DMSO) was added into each well to dissolve the purple formazan formed. The colorimetric assay was measured and recorded at absorbance of 570 nm using a plate reader (EXL 800, USA). Relative cell viability (%) was calculated as (A570 of treated sample/A570 of untreated sample) x 100 [36, 37].

HepG2 cell line = experiment: MTT assay, HepG2 cell line; format: cell-based, human; conditions: for Cytotoxicity at 5 µg/l: HepG2, 5 µg/l; for Cytotoxicity at 5 µg/l / Cytotoxicity at 10 µg/l / Cytotoxicity at 20 µg/l: MTT, 24 hr treatment, in % (unit assumed); for Cytotoxicity at 10 µg/l: HepG2, 10 µg/l; for Cytotoxicity at 20 µg/l: HepG2, 20 µg/l
Procedure: as §1, §2, §3

MCF7 cell line = experiment: MTT assay, MCF7 cell line; format: cell-based, human; conditions: 24 hr treatment, in % (unit assumed); for Cytotoxicity at 5 µg/l: MCF7, 5 µg/l; for Cytotoxicity at 10 µg/l: MCF7, 10 µg/l; for Cytotoxicity at 20 µg/l: MCF7, 20 µg/l
Procedure: as §1, §2, §3

SMILES | melting point | also measured
Nc1n[nH]c2c1C(=O)NC(=O)C2 [Compound 1, 3-amino-1,7-dihydro-4H-pyrazolo[4,3-c]pyridine-4,6(5H)-dione] |  | Cytotoxicity at 5 µg/l (HCT-116 cell line): 16.23; Cytotoxicity at 10 µg/l (HCT-116 cell line): 52.09; Cytotoxicity at 20 µg/l (HCT-116 cell line): 71.08; Cytotoxicity at 5 µg/l (HepG2 cell line): 43.17; Cytotoxicity at 10 µg/l (HepG2 cell line): 53.18; Cytotoxicity at 20 µg/l (HepG2 cell line): 65.34; Cytotoxicity at 5 µg/l (MCF7 cell line): 31.71; Cytotoxicity at 10 µg/l (MCF7 cell line): 61.39; Cytotoxicity at 20 µg/l (MCF7 cell line): 73.65
Cc1cc(C)n2nc3c(c2n1)C(=O)NC(=O)C3=Cc1ccccc1O [Compound 7d, 7-(2-Hydroxybenzylidene)-2,4-dimethylpyrido[4ʹ,3ʹ:3,4]pyrazolo[1,5-a]pyrimidine-8,10(7H,9H)-dione] | > 360 °C | 
COc1cc(C=C2C(=O)NC(=O)c3c2nn2c(C)cc(C)nc32)cc(OC)c1OC [Compound 7f, 2,4-Dimethyl-7-(3,4,5-trimethoxybenzylidene)pyrido[4ʹ,3ʹ:3,4]pyrazolo[1,5-a]pyrimidine-8,10(7H,9H)-dione] | 240 °C | 
Cc1cc(C)n2nc3c(c2n1)C(=O)NC(=O)C3=Cc1ccc2c(c1)OCO2 [Compound 7g, 7-(Benzo[d][1,3]dioxol-5-ylmethylene)-2,4-dimethylpyrido[4ʹ,3ʹ:3,4]pyrazolo[1,5-a]-pyrimidine-8,10(7H,9H)-dione] | 300 °C | 
Cc1cc(C)n2nc3c(c2n1)C(=O)NC(=O)C3=Cc1cccs1 [Compound 7i, 2,4-Dimethyl-7-(thiophen-2-ylmethylene)pyrido[4ʹ,3ʹ:3,4]pyrazolo[1,5-a]pyrimidine-8,10(7H,9H)-dione] | 290 °C | 
Cc1cc(C)n2nc3c(c2n1)C(=O)NC(=O)C3=Cc1ccncc1 [Compound 7j, 2,4-Dimethyl-7-(pyridin-4-ylmethylene)pyrido[4ʹ,3ʹ:3,4]pyrazolo[1,5-a]pyrimidine-8,10(7H,9H)-dione] | 270 °C | 
O=C1NC(=O)c2c(nn3c(-c4ccccc4)cc(-c4ccccc4)nc23)C1=Cc1ccc(Cl)cc1 [Compound 7m, 7-(4-Chlorobenzylidene)-2,4-diphenylpyrido[4ʹ,3ʹ:3,4]pyrazolo[1,5-a]pyrimidine-8,10(7H,9H)-dione] | 320 °C | 
O=C1NC(=O)c2c(nn3c(-c4ccccc4)cc(-c4ccccc4)nc23)C1=Cc1ccccc1O [Compound 7n, 7-(2-Hydroxybenzylidene)-2,4-diphenylpyrido[4ʹ,3ʹ:3,4]pyrazolo[1,5-a]pyrimidine-8,10(7H,9H)-dione] | 275 °C | 
COc1ccc(OC)c(C=C2C(=O)NC(=O)c3c2nn2c(-c4ccccc4)cc(-c4ccccc4)nc32)c1 [Compound 7o, 7-(2,5-Dimethoxybenzylidene)-2,4-diphenylpyrido[4ʹ,3ʹ:3,4]pyrazolo[1,5-a]pyrimidine-8,10(7H,9H)-dione] | 275 °C | 
COc1cc(C=C2C(=O)NC(=O)c3c2nn2c(-c4ccccc4)cc(-c4ccccc4)nc32)cc(OC)c1OC [Compound 7p, 2,4-Diphenyl-7-(3,4,5-trimethoxybenzylidene)pyrido[4ʹ,3ʹ:3,4]pyrazolo[1,5-a]-pyrimidine-8,10(7H,9H)-dione] | 315 °C | 
O=C1NC(=O)c2c(nn3c(-c4ccccc4)cc(-c4ccccc4)nc23)C1=Cc1ccc2c(c1)OCO2 [Compound 7q, 7-(Benzo[d][1,3]dioxol-5-ylmethylene)-2,4-diphenylpyrido[4ʹ,3ʹ:3,4]pyrazolo[1,5-a]-pyrimidine-8,10(7H,9H)-dione] | 335 °C | 
O=C1NC(=O)c2c(nn3c(-c4ccccc4)cc(-c4ccccc4)nc23)C1=Cc1ccco1 [Compound 7r, 7-(Furan-2-ylmethylene)-2,4-diphenylpyrido[4ʹ,3ʹ:3,4]pyrazolo[1,5-a]pyrimidine-8,10(7H,9H)-dione] | 335 °C | 
O=C1NC(=O)c2c(nn3c(-c4ccccc4)cc(-c4ccccc4)nc23)C1=Cc1cccs1 [Compound 7s, 2,4-Diphenyl-7-(thiophen-2-ylmethylene)pyrido[4ʹ,3ʹ:3,4]pyrazolo[1,5-a]pyrimidine-8,10(7H,9H)-dione] | 315 °C | 
O=C1NC(=O)c2c(nn3c(-c4ccccc4)cc(-c4ccccc4)nc23)C1=Cc1ccncc1 [Compound 7t, 2,4-Diphenyl-7-(pyridin-4-ylmethylene)pyrido[4ʹ,3ʹ:3,4]pyrazolo[1,5-a]pyrimidine-8,10(7H,9H)-dione] | 340 °C | 
Cc1cc(C)n2nc3c(c2n1)C(=O)NC(=O)C3=NNc1ccc(Cl)cc1 [Compound 9d, 7-(2-(4-Chlorophenyl)hydrazono)-2,4-dimethylpyrido[4ʹ,3ʹ:3,4]pyrazolo[1,5-a]pyrimidine-8,10(7H,9H)-dione] | 300 °C | 
O=C1NC(=O)c2c(nn3c(-c4ccccc4)cc(-c4ccccc4)nc23)C1=NNc1ccccc1 [Compound 11a, 2,4-Diphenyl-7-(2-phenylhydrazono)pyrido[4ʹ,3ʹ:3,4]pyrazolo[1,5-a]pyrimidine-8,10(7H,9H)-dione] | 315 °C | 
Cc1ccc(NN=C2C(=O)NC(=O)c3c2nn2c(-c4ccccc4)cc(-c4ccccc4)nc32)cc1 [Compound 11b, 2,4-Diphenyl-7-(2-(p-tolyl)hydrazono)pyrido[4ʹ,3ʹ:3,4]pyrazolo[1,5-a]pyrimidine-8,10(7H,9H)-dione] | 320 °C | 
O=C1NC(=O)c2c(nn3c(-c4ccccc4)cc(-c4ccccc4)nc23)C1=NNc1ccc(Cl)cc1 [Compound 11d, 7-(2-(4-Chlorophenyl)hydrazono)-2,4-diphenylpyrido[4ʹ,3ʹ:3,4]pyrazolo[1,5-a]pyrimidine-8,10(7H,9H)-dione] | 335 °C | 
O=C1Cc2nn3c(O)cc(-c4ccccc4)nc3c2C(=O)N1 [Compound 14b, 4-Hydroxy-2-phenylpyrido[4ʹ,3ʹ:3,4]pyrazolo[1,5-a]pyrimidine-8,10(7H,9H)-dione] | 310 °C | 
Cc1cc(O)n2nc3c(c2n1)C(=O)NC(=O)C3=Cc1ccccc1 [Compound 15a, 7-Benzylidene-4-hydroxy-2-methylpyrido[4ʹ,3ʹ:3,4]pyrazolo[1,5-a]pyrimidine-8,10(7H,9H)-dione] | 305 °C | 
Cc1cc(O)n2nc3c(c2n1)C(=O)NC(=O)C3=Cc1ccc(Cl)cc1 [Compound 15c, 7-(4-Chlorobenzylidene)-4-hydroxy-2-methylpyrido[4ʹ,3ʹ:3,4]pyrazolo[1,5-a]pyrimidine-8,10(7H,9H)-dione] | 330 °C | 
O=C1NC(=O)c2c(nn3c(O)cc(-c4ccccc4)nc23)C1=Cc1ccccc1 [Compound 15d, 7-Benzylidene-4-hydroxy-2-phenylpyrido[4ʹ,3ʹ:3,4]pyrazolo[1,5-a]pyrimidine-8,10(7H,9H)-dione] | 300 °C | 
COc1ccc(C=C2C(=O)NC(=O)c3c2nn2c(O)cc(-c4ccccc4)nc32)cc1 [Compound 15e, 4-Hydroxy-7-(4-methoxybenzylidene)-2-phenylpyrido[4ʹ,3ʹ:3,4]pyrazolo[1,5-a]pyrimidine-8,10(7H,9H)-dione] | 300 °C | 
O=C1NC(=O)c2c(nn3c(O)cc(-c4ccccc4)nc23)C1=Cc1ccc(Cl)cc1 [Compound 15f, 7-(4-Chlorobenzylidene)-4-hydroxy-2-phenylpyrido[4ʹ,3ʹ:3,4]pyrazolo[1,5-a]pyrimidine-8,10(7H,9H)-dione] | 330 °C | 
Cc1cc(O)n2nc3c(c2n1)C(=O)NC(=O)C3=NNc1ccc(Cl)cc1 [Compound 16d, 7-(2-(4-Chlorophenyl)hydrazono)-4-hydroxy-2-methylpyrido[4ʹ,3ʹ:3,4]pyrazolo[1,5-a]pyrimidine-8,10(7H,9H)-dione] | 310 °C | 
COc1cccc2c1C(=O)c1c(O)c3c(c(O)c1C2=O)C[C@@](O)(C(=O)CO)C[C@@H]3O[C@H]1C[C@H](N)[C@H](O)[C@H](C)O1 [Doxo, Doxorubicin, reference compound] |  | Cytotoxicity at 5 µg/l (HCT-116 cell line): 62.14; Cytotoxicity at 10 µg/l (HCT-116 cell line): 77.18; Cytotoxicity at 20 µg/l (HCT-116 cell line): 95.26; IC50 (HCT-116 cell line; Homo sapiens, HCT-116, HCT116, MTT, read-out: IC50 (drug concentration that inhibited 50% of cell proliferation)): 3.64 ng/mL (≈ 6.7 nM); Cytotoxicity at 5 µg/l (HepG2 cell line): 53.46; Cytotoxicity at 10 µg/l (HepG2 cell line): 68.59; Cytotoxicity at 20 µg/l (HepG2 cell line): 91.13; IC50 (HepG2 cell line; Homo sapiens, HepG2, MTT, read-out: IC50 (drug concentration that inhibited 50% of cell proliferation)): 4.75 ng/mL (≈ 8.74 nM); Cytotoxicity at 5 µg/l (MCF7 cell line): 75.43; Cytotoxicity at 10 µg/l (MCF7 cell line): 89.14; Cytotoxicity at 20 µg/l (MCF7 cell line): 98.19
